How the values were obtained:
[1] = target: MAP2 (Homo sapiens, UniProt P11137); assay: Binding (affinity) by displacement of PREG-^3H
Method: Binding (affinity) is measured by the displacement of PREG-^3H.

[2] = target: purified tubulin and MAP2 (Homo sapiens, UniProt P11137); assay: MAP2-induced polymerization of microtubules in vitro (optical density at 345 nm); type: biochemical; settings: for Activity (increase in optical density at 345 nm): purified tubulin and MAP2, 37° C., GTP; for effect on microtubule polymerization: MAP2 and tubulin with GTP, 37° C.
Method: Purified MAP2 and tubulin are mixed in the presence of GTP at 4° C. in a spectrophotometer cuvette. Polymerization is induced by heating at 37° C. and is followed by the increase in optical density (OD) which indicates the quantity of polymers formed.
This in vitro test measures the effect of molecules on the MAP2-induced polymerization of microtubules. This polymerization occurs when MAP2 proteins and tubulin are mixed at adequate concentrations in the presence of GTP. It is accompanied by an increase in optical density measured at 345 nm for 15 to 30 minutes with a UNICON spectrophotometer thermostated at 37° C. (FIG. 1).
Activity is measured by the increase in optical density at 345 nm of a mixture of purified tubulin and MAP2, incubated at 37° C. in the presence of GTP.

[3] = test system: α-tubulin forms (Tyr/Glu-Tub, Acet-Tub) in rat hippocampus; assay: Microtubule dynamics in rat hippocampus after single administration; type: in vivo; settings: 10 mg/kg subcutaneously, 3 h following injection
Description: Mean±SEM, n=6 per group. **p<0.01, *[…] vs sesame oil.
The effects produced by neurosteroids were compared with those produced by acute administration of the antidepressant drug fluoxetine (selective serotonin reuptake inhibitor; SSRI).

[4] = test system: PC12 cells; assay: Retraction of neurites induced by nocodazole; type: cell-based, rat; settings: pretreated one hour at 30 μM, nocodazole 15 minutes
Description: FIG. 5: Retraction of neurites (neurites) induced by nocodazole.
Nocodazole is a microtubule depolymerizing agent. Its addition to PC12 cell cultures, differentiated in the presence of NGF, causes neurites to retract as a result of the depolymerization of their microtubules.

[5] = test system: Sprague Dawley rats in the FST; assay: Forced swimming test (FST); type: in vivo, rat; settings: 10 mg/kg subcutaneously, 24, 5, 1 h before testing
Description: (A) 3-methoxy-PREG (43B) decreased rat immobility in the FST showing antidepressant activity. Results are expressed as mean±SEM (n=6-14). One-way ANOVA: Treatment (F5, 46: 4.30 P<0.01). ***P<0.001, *P<0.05 vs. water and sesame oil (Fisher LSD test). […] Results are expressed as mean±SEM (n=6-14). One-way ANOVA: Treatment (F5, 46: 3.57 P<0.01). **P<0.01, *P<0.05 vs. water and sesame oil (Fisher LSD test). […] One-way ANOVA: Treatment (F5, 46: 3.57 P<0.01). **P<0.01, *P<0.05 vs. water and sesame oil (Fisher LSD test).
Drugs were administered following the traditional dosing regimen used in the FST consisting of three injections: 24, 5, 1 h before testing.
The FST is currently the most widely used animal model for assessing depression related behavior and antidepressant drug activity in rodents (Cryan et al., Neubiorev. 2005). Rats are placed in an inescapable cylinder of water where they develop an immobile posture believed to reflect a “depressive”-like state. The time rats spend immobile is decreased by drugs exerting antidepressant activity.
Additional behaviors can be detected in the FST; namely, climbing and swimming. It has been shown that swimming behavior is sensitive to SSRIs such as fluoxetine whereas climbing is sensitive to norepinephrine re-uptake inhibitors (NRI) such as desipramine.

[6] = test system: PC12 cells; assay: Neuritic growth / sprouting in PC12 cells with NGF; type: cell-based, rat; settings: 30 μM, after 3 days of culture, with NGF
Method: Each molecule was tested in three culture wells. Measurements were taken for 200 cells per well using Scion Image software.
Neurite (neurite) length was measured for 200 cells per well after 2, 5, and 8 days of culture.
Stimulation of neuritic sprouting is conducted on PC12 cells differentiated in the presence of NGF (10 ng/ml) and the steroid being tested (30 μM) for 3 days. For each condition, the average length of the longest 200 neurites in each cell is measured simultaneously for 3 cultures.

[7] = test system: human neuroblastoma HS-SY5Y cells; assay: Cytotoxicity of okadaic acid, steroid protection (LDH release); type: cell-based; settings: 24 hours, simultaneous addition, increasing concentrations
Description: FIG. 6: Toxicity of okadaic acid. Steroid protection. […] Cell death was indicated by the release of lactate dehydrogenase (LDH) in the culture medium.
Okadaic acid is a protein phosphatase inhibiter. Thus, the hyperphosphorylation of tau protein is implicated in microtubule depolymerization and in human neuroblastoma HS-SY5Y cell death. The exposure of SY5Y cell cultures to okadaic acid does in fact cause significant cell death.

[8] = test system: transgenic mice expressing the longest human tau protein isoform; assay: RotaRod test in transgenic mice expressing the longest human tau protein isoform; type: in vivo, mouse; settings: subcutaneous implant releasing 0.38 mg of steroid per day for 90 days
Description: FIG. 8: Effect of molecule 43B on the motor incoordination of transgenic mice expressing the longest isoform of human tau protein in their neurons. […] The maximum speed of rotation of the RotaRod drum before the […] falls is a measurement of motor coordination (higher values correspond to a better treatment effect).
In order to evaluate the therapeutic potential of 43B to treat Alzheimer-type neurodegenerative diseases, a homozygous transgenic line of mice, such as described by Götz (EMBO J. 1995; 14(7):1304-13), can be used.
These mice express the longest human tau protein isoform. They present symptoms of neurological dysfunction expressed as muscular weakness and a reduction in motor coordination which correlate histologically with the appearance of abnormal neurites and hyperphosphorylated tau proteins as is seen in Alzheimer's disease. This pathological phosphorylation decreases the affinity of tau for microtubules and favors its aggregation.
A breeding program was undertaken at Bicêtre and genotyping made it possible to select mice homozygous for the transgene. […] These implants released 0.38 mg of steroid per day for 90 days. The progression of motor incoordination was followed by repeated RotaRod tests.

[9] = test system: PC12 cell line; assay: Cellular toxicity test; type: cell-based, rat; settings: concentrations as high as solubility limits (approximately 50 μM)
Method: Cellular toxicity tests are carried out routinely on the PC12 cell line.

[10] = target: T1, human progesterone receptor(PR) (Homo sapiens, UniProt P06401); assay: Test of progesterone receptor agonist activity (luciferase transactivation, HEK293T); type: cell-based; settings: increasing amounts, 24 hours
T1 construct: expressed in transfected cells; host or cells: HEK293T
T1 sequence (P06401 1-933): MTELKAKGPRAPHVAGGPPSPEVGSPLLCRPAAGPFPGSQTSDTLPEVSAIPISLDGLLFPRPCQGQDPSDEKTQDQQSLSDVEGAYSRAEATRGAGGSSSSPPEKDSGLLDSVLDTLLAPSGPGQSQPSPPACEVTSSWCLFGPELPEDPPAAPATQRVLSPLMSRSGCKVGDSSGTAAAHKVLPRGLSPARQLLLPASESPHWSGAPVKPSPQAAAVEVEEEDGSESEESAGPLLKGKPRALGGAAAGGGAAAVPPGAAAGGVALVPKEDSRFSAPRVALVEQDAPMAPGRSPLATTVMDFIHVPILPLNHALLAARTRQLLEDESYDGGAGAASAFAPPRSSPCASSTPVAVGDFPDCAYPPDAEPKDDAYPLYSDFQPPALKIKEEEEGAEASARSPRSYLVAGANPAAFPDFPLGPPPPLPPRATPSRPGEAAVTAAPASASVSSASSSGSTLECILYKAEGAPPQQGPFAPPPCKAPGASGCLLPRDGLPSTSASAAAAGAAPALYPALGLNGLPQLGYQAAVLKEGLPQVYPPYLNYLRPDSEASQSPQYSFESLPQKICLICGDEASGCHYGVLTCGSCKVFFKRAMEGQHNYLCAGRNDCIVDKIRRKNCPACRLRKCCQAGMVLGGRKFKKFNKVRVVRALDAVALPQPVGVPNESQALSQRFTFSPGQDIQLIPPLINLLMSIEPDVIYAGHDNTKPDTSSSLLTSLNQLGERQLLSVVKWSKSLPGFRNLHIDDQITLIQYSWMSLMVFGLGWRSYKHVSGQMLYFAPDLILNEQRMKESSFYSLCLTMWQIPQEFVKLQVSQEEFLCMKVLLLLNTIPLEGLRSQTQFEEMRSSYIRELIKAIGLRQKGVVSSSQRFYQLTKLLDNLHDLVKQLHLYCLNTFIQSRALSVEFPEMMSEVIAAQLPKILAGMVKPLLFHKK
Method: The main experimental setting used is the following: HEK293T cells were transiently transfected, using calcium phosphate precipitation technology, with expression vectors pSG5hPR (which permits expression of human progesterone receptor(PR)), pFC31-luc (contains the luciferase gene under the control of the MMTV promoter, which is in turn activated by binding of a progestin to progesterone receptor) and pcbetagal (which permits expression of betagalactosidase), and cultured during 24 hours with increasing amounts of various compositions: • 1. […] Test of progesterone receptor […] activity: transfected cells were cultured with progesterone (1 nM) and increasing amounts of RU486 (a well-known progesterone receptor antagonist) or 3-methoxy-pregnenolone. • With this setting, a compound with progesterone receptor antagonist activity competes with progesterone for the occupation of progesterone receptor and results in a progressive loss of transactivation activity when the amount of this compound is increased compared to progesterone.

[11] = 40 μM, compared to control kinetics with solvent alone

Sequence of MAP2 (P11137 whole entry): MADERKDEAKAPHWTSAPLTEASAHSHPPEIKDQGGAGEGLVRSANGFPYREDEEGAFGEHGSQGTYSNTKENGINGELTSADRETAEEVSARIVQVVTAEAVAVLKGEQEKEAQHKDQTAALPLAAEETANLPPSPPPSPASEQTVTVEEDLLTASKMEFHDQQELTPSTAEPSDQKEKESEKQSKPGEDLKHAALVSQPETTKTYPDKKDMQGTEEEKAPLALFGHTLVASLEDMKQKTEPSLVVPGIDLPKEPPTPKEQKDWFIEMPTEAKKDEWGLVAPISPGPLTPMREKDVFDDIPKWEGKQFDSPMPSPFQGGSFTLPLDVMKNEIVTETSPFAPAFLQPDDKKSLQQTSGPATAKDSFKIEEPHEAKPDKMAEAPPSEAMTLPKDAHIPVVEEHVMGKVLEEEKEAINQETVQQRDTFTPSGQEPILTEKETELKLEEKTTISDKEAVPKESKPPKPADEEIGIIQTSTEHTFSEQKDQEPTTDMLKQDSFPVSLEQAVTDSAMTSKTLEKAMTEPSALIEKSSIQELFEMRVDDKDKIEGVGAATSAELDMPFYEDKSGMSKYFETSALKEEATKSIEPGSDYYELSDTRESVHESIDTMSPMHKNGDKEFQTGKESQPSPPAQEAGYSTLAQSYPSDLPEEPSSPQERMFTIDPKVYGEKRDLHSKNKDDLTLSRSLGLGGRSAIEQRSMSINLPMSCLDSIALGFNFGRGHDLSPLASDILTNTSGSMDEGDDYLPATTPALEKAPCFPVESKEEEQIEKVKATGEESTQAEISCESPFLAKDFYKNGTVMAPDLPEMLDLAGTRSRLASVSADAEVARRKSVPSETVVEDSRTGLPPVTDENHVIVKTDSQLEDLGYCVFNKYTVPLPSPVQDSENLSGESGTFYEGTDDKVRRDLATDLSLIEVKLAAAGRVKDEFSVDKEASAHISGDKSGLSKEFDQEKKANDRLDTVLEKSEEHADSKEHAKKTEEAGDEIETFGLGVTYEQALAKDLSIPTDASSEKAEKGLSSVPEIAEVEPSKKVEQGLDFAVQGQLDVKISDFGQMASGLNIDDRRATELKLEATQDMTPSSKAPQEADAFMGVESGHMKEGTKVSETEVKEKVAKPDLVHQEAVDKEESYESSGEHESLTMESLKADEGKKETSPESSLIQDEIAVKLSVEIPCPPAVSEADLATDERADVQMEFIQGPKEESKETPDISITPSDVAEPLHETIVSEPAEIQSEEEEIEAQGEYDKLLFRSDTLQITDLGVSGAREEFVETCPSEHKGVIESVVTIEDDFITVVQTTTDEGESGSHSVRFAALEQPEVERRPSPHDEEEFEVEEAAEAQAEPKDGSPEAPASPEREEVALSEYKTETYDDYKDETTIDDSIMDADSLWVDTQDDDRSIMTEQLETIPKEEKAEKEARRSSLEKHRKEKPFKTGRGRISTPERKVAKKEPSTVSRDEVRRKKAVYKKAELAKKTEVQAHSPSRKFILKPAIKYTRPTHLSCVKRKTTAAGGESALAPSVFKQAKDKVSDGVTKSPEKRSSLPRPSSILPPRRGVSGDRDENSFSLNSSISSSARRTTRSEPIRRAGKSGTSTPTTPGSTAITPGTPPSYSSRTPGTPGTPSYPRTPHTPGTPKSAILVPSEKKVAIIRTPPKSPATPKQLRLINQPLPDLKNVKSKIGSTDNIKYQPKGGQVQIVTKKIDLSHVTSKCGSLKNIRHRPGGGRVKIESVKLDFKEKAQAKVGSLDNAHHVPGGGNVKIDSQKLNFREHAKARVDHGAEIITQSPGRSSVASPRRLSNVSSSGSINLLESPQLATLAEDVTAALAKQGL
Sequence of purified tubulin and MAP2 (P11137 whole entry): as above

Compound	Affinity (index of binding) [1]	Activity (increase in optical density at 345 nm) [2]	further results
CC(=O)[C@H]1[C@H](C)C[C@H]2[C@@H]3CC[C@H]4C[C@@H](O)CC[C@]4(C)[C@H]3CC[C@@]21C [3β-hydroxy-5α-pregnane-20-one-16α-methyl]	57% of PREG	53% of PREG	–
CO[C@H]1CC[C@@]2(C)[C@@H](CC[C@@H]3[C@@H]2CC[C@]2(C)[C@@H](C(C)=O)CC[C@@H]32)C1 [3β-methoxy-5α-pregnane-20-one]	87% of PREG	10% of PREG	–
CO[C@H]1CC[C@@]2(C)C(CCC3C2CC[C@@]2(C)C3CC[C@@H]2[C@@H](C)O)C1 (stereo partly drawn) [3β-methoxy-5α-pregnane-20β-ol]	65% of PREG	65% of PREG	–
CO[C@H]1CC[C@@]2(C)C(=CC[C@H]3C4=CC[C@H](C(C)=O)[C@@]4(C)CC[C@@H]32)C1 [3β-methoxy-pregna-5,14-diene-20-one]	102% of PREG	50% of PREG	–
CO[C@H]1CC[C@@]2(C)C(=CC[C@@H]3[C@@H]2CC[C@@]2(C)[C@H]3CC[C@@]2(C(C)=O)C(Cl)Cl)C1 [3β-methoxy-pregna-5-ene-20-one-17α-dichloromethyl]	53% of PREG	113% of PREG	–
CC(=O)[C@H]1CC[C@H]2[C@@H]3CC=C4C[C@@H](O)CC[C@]4(C)[C@H]3CC[C@]12C [PREG, Pregnenolone]	–	100% of PREG	Acet-Tub (marker of stable microtubules) [3]: significantly decreased; resistance of neurites to nocodazole [4]: makes the neurites resistant to nocodazole; rat climbing behavior in the FST [5]: not changed; rat swimming in the FST [5]: significantly increased; increase in the average length of the neurites [6]: 60%; cell death caused by okadaic acid (LDH release) [7]: Cell death is decreased; Lag time of microtubule polymerization [2, 11]: decreased; polymerization rate and quantity of microtubules [2, 11]: clearly increase; effect on microtubule polymerization [2]: activates microtubule polymerization; motor dysfunction (RotaRod) [8]: Only the 3-methoxy-PREG had a beneficial effect; cellular toxicity [9]: do not demonstrate toxicity
CC(=O)[C@@]12C[C@@H]1C[C@H]1[C@@H]3CC=C4C[C@@H](O)CC[C@]4(C)[C@H]3CC[C@@]12C [PREG-16α,17α-methylene]	62% of PREG	49% of PREG	–
CC(=O)[C@H]1[C@H](C)C[C@H]2[C@@H]3CC=C4C[C@@H](O)CC[C@]4(C)[C@H]3CC[C@@]21C [PREG-16α-methyl]	80% of PREG	70% of PREG	–
CC(=O)[C@H]1[C@@H](C)C[C@H]2[C@@H]3CC=C4C[C@@H](O)CC[C@]4(C)[C@H]3CC[C@@]21C [PREG-16β-methyl]	63% of PREG	67% of PREG	–
CC(=O)O[C@H](C)[C@H]1CC[C@H]2[C@@H]3CC=C4C[C@@H](O)CC[C@]4(C)[C@H]3CC[C@]12C [Pregna-5-ene-3β,20β-diol-20-acetate]	60% of PREG	108% of PREG	–
CNCCC(Oc1ccc(C(F)(F)F)cc1)c1ccccc1 (stereo not shown) [fluoxetine]	–	–	Acet-Tub (marker of stable microtubules) [3]: tendency to increase; Tyr/Glu-Tub ratio (index of microtubule dynamics) [3]: did not change
CC(=O)[C@H]1CC[C@H]2[C@@H]3CCC4=CC(=O)CC[C@]4(C)[C@H]3CC[C@]12C [progesterone, reference compound]	–	–	progesterone receptor agonist (transactivation) activity [10]: permits a transactivation activity; effect on microtubule polymerization [2]: do not stimulate polymerization
PREG-16α,17α-epoxy	41% of PREG	54% of PREG	–
pregnenolone sulfate [reference compound]	–	–	effect on microtubule polymerization [2]: do not stimulate polymerization
